This is an account of results in US8557737B2, “Methods of altering poppy characteristics” (priority 2005, dated 2013).

Read-outs that look alike come from different tables or passages of the source.

Experiment [1] concerns poppy crops. More on the design: species or system Papaver somniferum. Particulars: in vivo.
Experiment [2] relates to poppy crops. The experiment in a line: Example 17: field trial, triasulfuron, mesosulfuron-methyl and metsulfuron-methyl at early run-up and mid-late run-up, morphine crop. Format: in vivo, Papaver somniferum. Particulars: Trt 2: COMPOUND 1 120 MG/HA + PULSE .2% V/V at ERU and M-LRU. On the procedure: All trials were conducted on poppy crops. Seed was treated with Thiram (5.6 g of Thiram 800/kg seed) and Apron (4 g/kg) and sown at a rate of approximately 750 g/ha. Fertilisers were applied at sowing. Most commonly, either 50:50 lime:superphosphate/triple superphosphate at 125 kg/ha, or lime:superphosphate at 250 kg/ha, were mixed with seed and drilled at a depth of 15 mm. In the same operation, NPK (nitrogen:phosphorus:potassium), at various rates, was banded 75 mm below the seed, unless otherwise stated. All crops were subjected to herbicide sprays for weed control, fungicide sprays for disease control, insecticide sprays if appropriate and were irrigated as required.
All spray applications were made with a precision sprayer, using Silvan Lurmark flat-fan, low-drift nozzles (LD110-0015). Spray equipment was calibrated to deliver 153 L water/ha.
At harvest, a 2 m×4 m quadrat was placed in each plot (3 m×6 m, unless otherwise stated) and capsules hand-picked from this area. Capsules were broken up, seed and capsule material separated and weighed. Capsule moisture readings were taken with a moisture meter. Alkaloid yield data were calculated on Pesticide Research Manager (version 5 for Windows) using the formulae below. Briefly, capsule weight was adjusted for moisture to a dry weight, 5% of seed weight was added to this (this amount of capsule material regularly occurs in seed samples after processing) to give a capsule weight per plot. Seed weight was adjusted to 95% of crude weight. Straw weights were determined by multiplying dry capsule weight by 1.3 (estimated amount of stem material in a commercial harvest) and adjusted to 11% moisture. When Lontrel was applied to crops exact capsule and seed weight data were entered. Analyses of variance and a Multiple Range Test were performed on data using Pesticide Research Manager.
Trial to evaluate applications of triasulfuron, mesosulfuron-methyl and metsulfuron-methyl, in a morphine crop. Treatment sprays were applied to with crop at early run-up and mid-late run-up, respectively. Plant heights were measured on 6 weeks after last application and lodging was assessed at capsule harvest.

`COC(=O)c1ccccc1S(=O)(=O)NC(=O)Nc1nc(C)nc(OC)n1` [Compound 1, metsulfuron-methyl]: in experiment [1], the “CAPSULE/SEED RATIO” value amounted to 0.883 a, the MORPHINE is given as 26.32 c kg/ha, the “PLANT HEIGHT” value was 67 c cm and the SEED amounted to 1015 b kg/ha. Besides, in experiment [1], the STRAW is 1255 c kg/ha, the “STRAW MORPHINE” value came out at 2.09 b % and the YIELD is 2.27 c t/ha. For the same molecule, in experiment [2], the “CAPS/SEED RATIO” value is given as 8.976 a, the “CROP WEIGHT” value amounted to 2.60 b t/ha, the MORPHINE worked out at 49.48 a kg/ha and the SEED is recorded as 187 c kg/ha. In experiment [2], the STRAW was 2343 a kg/ha and the “STRAW MORPHINE” value came to 2.11 c %. In addition, in experiment [2] (6 weeks after last application), the “PLANT HEIGHT” value is 97.0 c cm. Moreover, the LODGING in experiment [2] (at capsule harvest) was determined as 2.7 b %.
